In patent US20260315431A1, “NANOMATERIAL ENCAPSULATED BIOFILM INHIBITORS FOR DENTAL CARIES TREATMENT” (THE UAB RESEARCH FOUNDATION, priority 2023, published 2026):
In brackets after ≈: the same amount, converted by molar mass. Entries after “also recorded” stand apart in the source; their conditions may differ.

What was measured:
[1] = Solubility in water containing 1% DMSO (UV spectroscopy); format: physicochemical; settings: organic solvent or mixture; water containing 1% DMSO
Method: Solubility of MA1-6 and HA2-6 were determined as reported^46 (Table 1).
General considerations. ^1H-NMR and ^13C-NMR spectra were recorded on Bruker Avance Neo 400 and Avance II 700 spectrometers using TMS or appropriate solvent signals as internal standard. The chemical shift values are given in parts per million (ppm) relative to the internal standard used and the coupling constants (J) are given in hertz (Hz). High resolution mass spectra (HRMS) were recorded using Waters AutoSpec-Ultima™ NT magnetic sector mass spectrometer with Electron Impact (EI) Ionization source. The mass analyzer is an electric-magnetic-electric (EBE) sector (a double focusing sector). Anhydrous solvents used for reactions were purchased in Sure-Seal™ bottles from Aldrich chemical company. Other chemical reagents were purchased from Aldrich or Fisher chemical companies and used as received. Reactions were monitored with thin layer chromatography (TLC), which was done on silica gel plates with fluorescent indicator (Silicycle, silica gel, UV254, 25 μm plates). The TLC spots were observed under UV light with the wavelengths 254 nm and 365 nm. The reaction mixtures were purified by column chromatography using Si gel (32-63 μm) from Dynamic Absorbent, Inc. Melting points were determined on a Mel-Temp II melting point apparatus and are uncorrected. All tested compounds have ≥95% purity as determined by HPLC. HPLC traces were obtained using Shimadzu SPD-M20A. Solubility of compounds were determined by UV-spectroscopy method using Agilent Cary 60 UV-Vis spectrophotometer. HPLC analysis of the final compounds were conducted using Kinetex 5 μm C18 100 Å, LC Column 150×4.6 mm, compound=3 mM, 20 μL injection, solvent: mobile phase buffer, Conditions: 60% MeCN/40% H2O/0.1% Formic acid (isocratic), HPLC method 0-10 min, Signals were analyzed using a 254 nm UV detector. A chromatogram of Mobile Phase Buffer (20 μL) was obtained for comparison.

[2] = tested on: S. gordonii DL1; test: Commensal biofilm inhibition, S. gordonii DL1 (crystal violet, OD562); format: cell-based, Streptococcus gordonii; settings: for S. gordonii biofilm: 25 μM
Method: (§1) The bacterial strains, S. mutans UA159, S. gordonii DL1, and S. sanguinis SK36 were inoculated statically at 37° C. under 5% CO2 in Todd Hewitt Broth (THB) for 24 h. The cultures were then diluted with fresh THB (1:5) and reinoculated until optical density at 470 nm (OD470) reached 1. The optical density was read using BioTek 800TS microplate reader at 470 nm for bacterial growth and 562 nm for biofilm stained with crystal violet. Data was plotted in Graphpad Prism9.
Biofilm inhibition assays. Biofilm inhibition assays were performed in polystyrene microtiter 96 well plates. Stock solutions were prepared in chemically defined medium (CDM, JRH Biosciences, Lenexa, KS) with 2% sucrose, 1% bacteria cultures and various concentrations of the small molecule inhibitors to examine their activity against biofilm formation as described^69, 70. These stocks were assayed in 96 well plates in triplicate and incubated at 37° C. and 5% CO2 for 16 h. After reading optical density for bacterial growth, the plate was gently washed with water, dried, and stained with crystal violet, and then gently rinsed again with deionized water leaving the stained biofilm at the bottoms of the wells. Biofilms was dissolved in 200 μL of 30% acetic acid and absorbance at 562 nm was used read to determine biofilm biomass. Each assay was carried out at least in triplicate. Biofilm inhibitory concentration (IC50) of the compounds was determined by serial dilutions.
All bacterial strains (S. mutans UA159, S. gordonii DL1, and S. sanguinis SK36) were inoculated statically at 37° C. under 5% CO2 environment in Todd Hewitt Broth (THB) for 24 h^[61]. […] The optical density was read using BioTek 800 TS absorbance reader at 470 nm for bacterial growth and 562 nm for biofilm stained with crystal violet. […]
Biofilm inhibition assays were performed in polystyrene microtiter 96-well plates. […] After reading optical density for bacterial growth, the plate was washed, dried, and stained with 0.1% crystal violet which was again rinsed well with deionized water leaving the stained biofilm at the bottoms of the wells. […]

[3] = tested on: S. mutans UA159; test: Planktonic growth, S. mutans UA159 (OD470); format: cell-based, Streptococcus mutans
Method: as §1
(§2) S. mutans, S. gordonii, and S. sanguinis growth assays. Effects of compounds on S. mutans and commensal bacterial growth were evaluated using the growth assay as described^69. S. mutans UA159, S. gordonii DL1, S. sanguinis SK36, cultures were grown for 24 h under 5% CO2 at 37° C. These cultures were then reinoculated with fresh THB (1:5) until OD470=1 when the bacteria were ready to be used. Different concentrations of the inhibitor were assayed in chemically defined media (CDM) with 1% of the bacteria, 1% sucrose and 1% DMSO in 96 well plates. The 96 well plates were incubated under 5% CO2 at 37° C. for 16 h. Growth of the bacteria was read after 16 h at OD470. Each assay was carried out at least in triplicate.
All bacterial strains (S. mutans UA159, S. gordonii DL1, and S. sanguinis SK36) were inoculated statically at 37° C. under 5% CO2 environment in Todd Hewitt Broth (THB) for 24 h^[61]. The cultures were then diluted with fresh THB (1:5) and reinoculated until the optical density at 470 nm reaches 1. The optical density was read using BioTek 800 TS absorbance reader at 470 nm for bacterial growth and 562 nm for biofilm stained with crystal violet. Data was plotted in Prism 10.0.2.
as §2, with “Effects” for “S. mutans, S. gordonii, and S. sanguinis growth assays. Effects”, “PEHA5, PEHA6, HA5 or HA6” for “compounds”, “described^[62].” for “described^69.”, “PEHA5, PEHA6, HA5 or HA6” for “inhibitor”, “CDM” for “chemically defined media (CDM)”

Row | SMILES | solubility [1] | S. gordonii biofilm [2] | inhibition at 25 µM ([2]; Streptococcus gordonii, DL1) | planktonic growth of S. mutans ([3]; 25 μM) | planktonic growth of S. mutans ([3]; 50 μM) | growth of S. mutans ([3]; 50 μM and 100 μM) | viability of S. mutans ([3]; 25 μM and 50 μM)
1 | O=C1/C(=C/c2cc(O)c(O)cc2O)Oc2ccccc21 [HA5, 2-[(2′,4′,5′-Trihydroxyphenyl)methylidene]-2,3-dihydro-1-benzofuran-3-one] | 120 µg/mL (≈ 444 µM) | minimal | ~20% | did not affect the planktonic growth | did not inhibit the planktonic growth; also recorded: no effect on growth; also recorded: did not inhibit the growth significantly | did not inhibit S. mutans growth | –
2 | O=C1/C(=C/c2cc(O)c(O)c(O)c2)Oc2ccccc21 [HA6, 2-[(3′,4′,5′-Trihydroxyphenyl)methylidene]-2,3-dihydro-1-benzofuran-3-one] | 90.8 µg/mL (≈ 336 µM) | did not significantly reduce the biofilms | – | – | did not inhibit the planktonic growth; also recorded: no effect on growth; also recorded: inhibited the planktonic growth slightly | – | did not inhibit S. mutans viability
